From US9856216B2, “Compounds as TNIK, IKKε and TBK1 inhibitors and pharmaceutical composition comprising same” (GREEN CROSS CORPORATION, priority 2015, dated 2018) come the findings set out here.

pIC50: −log10 of the molar value.

Holding throughout (assay type): biochemical
One assay has as its target T1, TBK1 (Homo sapiens, UniProt Q9UHD2).
T1 construct: purchased Promega V3991
T1 sequence (Q9UHD2 1-729): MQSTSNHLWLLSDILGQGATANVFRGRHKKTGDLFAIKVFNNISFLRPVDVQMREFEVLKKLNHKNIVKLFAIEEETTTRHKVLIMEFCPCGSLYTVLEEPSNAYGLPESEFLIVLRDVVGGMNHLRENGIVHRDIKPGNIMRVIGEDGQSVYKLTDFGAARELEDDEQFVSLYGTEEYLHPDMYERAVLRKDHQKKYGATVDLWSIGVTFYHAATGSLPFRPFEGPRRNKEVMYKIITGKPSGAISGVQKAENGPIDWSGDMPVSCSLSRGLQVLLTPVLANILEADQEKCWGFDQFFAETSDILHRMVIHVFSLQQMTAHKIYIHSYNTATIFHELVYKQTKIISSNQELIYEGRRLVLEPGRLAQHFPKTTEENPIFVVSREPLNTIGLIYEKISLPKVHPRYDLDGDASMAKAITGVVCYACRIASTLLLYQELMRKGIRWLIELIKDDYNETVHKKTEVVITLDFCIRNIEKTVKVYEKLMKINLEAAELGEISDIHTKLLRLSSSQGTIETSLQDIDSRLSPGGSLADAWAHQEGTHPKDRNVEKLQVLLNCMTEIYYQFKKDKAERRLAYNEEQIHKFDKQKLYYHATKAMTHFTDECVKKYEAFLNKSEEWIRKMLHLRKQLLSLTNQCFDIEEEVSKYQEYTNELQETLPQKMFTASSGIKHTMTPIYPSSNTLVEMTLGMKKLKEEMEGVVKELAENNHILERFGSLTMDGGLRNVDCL
Kind of assay: ADP-Glo Kinase Assay, inhibition activity on TBK1. As for the experimental part:
(§1) The inhibition activities on TNIK, IKKε and TBK1 were measured by a luminometer, TNIK/IKKε/TBK1 Kinase Enzyme System (Promega, Ca# V4158; Invitrogen, PR8031B, Promega, Ca# V3991) and ADP-Glo Kinase Assay using ADP-Glo™ Kinase Analysis Kit (Promega, Ca# V9101) and a kinase reaction buffer [40 mM Tris(pH 7.5), 20 mM MgCl2, 0.1 mg/mL BSA] in accordance with the manufacturer's protocol.

Another assay has as its target T2, IKKε (Homo sapiens, UniProt Q14164).
T2 construct: purchased Invitrogen PR8031B
T2 sequence (Q14164 1-716): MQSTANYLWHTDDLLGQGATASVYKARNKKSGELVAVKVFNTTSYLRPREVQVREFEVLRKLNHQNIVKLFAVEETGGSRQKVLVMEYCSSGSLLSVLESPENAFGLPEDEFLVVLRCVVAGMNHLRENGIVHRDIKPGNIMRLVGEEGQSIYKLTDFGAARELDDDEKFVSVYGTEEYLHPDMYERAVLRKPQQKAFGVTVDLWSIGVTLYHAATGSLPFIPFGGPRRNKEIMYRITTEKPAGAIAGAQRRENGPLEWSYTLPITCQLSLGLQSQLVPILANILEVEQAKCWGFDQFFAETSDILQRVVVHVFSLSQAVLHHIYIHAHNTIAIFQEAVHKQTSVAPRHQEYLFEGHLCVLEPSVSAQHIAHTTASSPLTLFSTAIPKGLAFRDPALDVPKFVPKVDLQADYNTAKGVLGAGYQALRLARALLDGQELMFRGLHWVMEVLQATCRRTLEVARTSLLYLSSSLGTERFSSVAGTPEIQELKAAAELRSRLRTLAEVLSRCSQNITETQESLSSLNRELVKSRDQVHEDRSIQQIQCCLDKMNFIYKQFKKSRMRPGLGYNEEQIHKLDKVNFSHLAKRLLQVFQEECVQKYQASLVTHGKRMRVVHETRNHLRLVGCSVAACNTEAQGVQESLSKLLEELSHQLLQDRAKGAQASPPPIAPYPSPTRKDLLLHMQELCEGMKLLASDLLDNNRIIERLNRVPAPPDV
Kind of assay: ADP-Glo Kinase Assay, inhibition activity on IKKε. The procedure:
as §1

The target in the next assay is T3, TNIK (Homo sapiens, UniProt Q9UKE5).
T3 construct: purchased Promega V4158
T3 sequence (Q9UKE5 1-367 limits assumed): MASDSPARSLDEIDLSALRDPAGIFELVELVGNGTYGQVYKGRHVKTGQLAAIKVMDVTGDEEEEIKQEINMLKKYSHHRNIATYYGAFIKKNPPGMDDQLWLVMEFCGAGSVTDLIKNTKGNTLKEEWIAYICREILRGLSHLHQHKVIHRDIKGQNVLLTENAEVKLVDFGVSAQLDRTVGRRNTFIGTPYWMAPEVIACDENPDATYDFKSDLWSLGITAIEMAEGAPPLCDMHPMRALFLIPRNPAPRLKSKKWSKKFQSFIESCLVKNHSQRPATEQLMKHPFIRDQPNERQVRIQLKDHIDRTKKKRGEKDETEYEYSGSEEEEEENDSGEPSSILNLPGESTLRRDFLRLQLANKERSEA
Kind of assay: ADP-Glo Kinase Assay, inhibition activity on TNIK. Conditions: read-out: TNIK. As for the experimental part:
as §1
A general note: ADP-Glo first removes unused ATP, then detects ADP through luciferase.

With `COc1cccc(Nc2cc(-c3ccc(N)c4c3CNC4=O)ccn2)c1` [Example 68, 7-Amino-4-(2-((3-methoxyphenyl)amino)pyridin-4-yl) isoindolin-1-one], the pIC50 at TBK1 was 5.91; against IKKε, 5.58.

Take `COc1cccc(Nc2ccnc(-c3ccc(N)c4c3CNC4=O)c2)c1` [Example 69, 7-Amino-4-(4-((3-methoxyphenyl)amino)pyridin-2-yl) isoindolin-1-one]: the pIC50 against TBK1 was below 5.00.

For the compound `COc1cccc(Nc2nccc(-c3ccc(N)c4c3CNC4=O)n2)c1` [Example 70, 7-Amino-4-(2-((3-methoxyphenyl)amino)pyrimidin-4-yl) isoindolin-1-one], the pIC50 against TBK1 and at IKKε was 7.29 throughout.

With `Cn1cc(Nc2nccc(-c3ccc(N)c4c3CNC4=O)n2)cn1` [Example 71], the values for the pIC50 at TBK1 and at IKKε were 6.82 and 6.80, respectively.

With `Nc1ccc(-c2ccnc(Nc3ccccc3)n2)c2c1C(=O)NC2` [Example 72, 7-Amino-4-(2-(phenylamino)pyrimidin-4-yl)isoindolin-1-one], the figures for the pIC50 against TBK1 and on IKKε were 7.05 and 6.55, respectively.

For the compound `Nc1ccc(-c2ccnc(Nc3cccc(F)c3)n2)c2c1C(=O)NC2` [Example 73, 7-Amino-4-(2-((3-fluorophenyl)amino)pyrimidin-4-yl) isoindolin-1-one], the figures for the pIC50 on TBK1 and on IKKε were 7.46 and 6.46, respectively.

For the compound `Nc1ccc(-c2ccnc(Nc3ccc(F)cc3)n2)c2c1C(=O)NC2` [Example 74, 7-Amino-4-(2-((4-fluorophenyl)amino)pyrimidin-4-yl) isoindolin-1-one], the pIC50 was 7.37 at TBK1 and 6.25 against IKKε.

For the compound `COc1ccc(Nc2nccc(-c3ccc(N)c4c3CNC4=O)n2)cc1` [Example 75, 7-Amino-4-(2-((4-methoxyphenyl)amino)pyrimidin-4-yl) isoindolin-1-one], the pIC50 on TBK1 was 6.96; against IKKε, 6.44.

Regarding `CC(=O)Nc1ccc(Nc2nccc(-c3ccc(N)c4c3CNC4=O)n2)cc1` [Example 76, N-(4-((4-(7-amino-1-oxoisoindolin-4-yl)pyrimidin-2-yl)amino)phenyl)acetamide], the pIC50 on TBK1 is 7.00; at IKKε, 6.46.

For `CC(=O)Nc1cccc(Nc2nccc(-c3ccc(N)c4c3CNC4=O)n2)c1` [Example 77, N-(3-((4-(7-amino-1-oxoisoindolin-4-yl)pyrimidin-2-yl)amino)phenyl)acetamide], the pIC50 against TBK1 is 7.57; at IKKε it was 6.70.

Consider `COc1cccc(Nc2cc(-c3ccc(N)c4c3CNC4=O)ncn2)c1` [Example 78, 7-Amino-4-(6-((3-methoxyphenyl)amino)pyrimidin-4-yl) isoindolin-1-one], for which the pIC50 is 6.72 at TBK1 and 5.86 at IKKε.

On TBK1, `Nc1ccc(-c2c[nH]c3ncc(-c4ccccc4)cc23)c2c1C(=O)NC2` [Example 79, 7-Amino-4-(5-phenyl-1H-pyrrolo[2,3-b]pyridin-3-yl) isoindolin-1-one] gave a pIC50 of 6.19.

For `Nc1ccc(-c2ccnc3[nH]ccc23)c2c1C(=O)NC2` [Example 80, 7-Amino-4-(1H-pyrrolo[2,3-b]pyridin-4-yl)isoindolin-1-one], the pIC50 at TBK1 is 5.03; against IKKε, below 5.00.

On to `CN1CCN(c2nccc(-c3ccc(N)c4c3CNC4=O)n2)CC1` [Example 81, 7-Amino-4-(2-(4-methylpiperazin-1-yl)pyrimidin-4-yl) isoindolin-1-one], for which the pIC50 against TBK1 and on IKKε was below 5.00 throughout.

Turning to `Nc1ccc(-c2ccnc(N3CCOCC3)n2)c2c1C(=O)NC2` [Example 82, 7-Amino-4-(2-morpholinopyrimidin-4-yl)isoindolin-1-one], the pIC50 at TBK1 and against IKKε was below 5.00 each time.

On to `Cc1ccc(Nc2nccc(-c3ccc(N)c4c3CNC4=O)n2)cc1` [Example 83, 7-Amino-4-(2-(p-tolylamino)pyrimidin-4-yl)isoindolin-1-one], for which the pIC50 is 6.42 on TBK1 and 6.06 on IKKε.

`Cc1cccc(Nc2nccc(-c3ccc(N)c4c3CNC4=O)n2)c1` [Example 84, 7-Amino-4-(2-(m-tolylamino)pyrimidin-4-yl)isoindolin-1-one]: the figures for the pIC50 against TBK1 and against IKKε were 6.70 and 6.36, respectively.

As to `CC(=O)Nc1ccc(-c2cnc3[nH]cc(-c4ccc(N)c5c4CNC5=O)c3c2)cc1` [Example 85, N-(4-(3-(7-amino-1-oxoisoindolin-4-yl)-1H-pyrrolo[2,3-b]pyridine-5-yl)phenyl)acetamide], the values for the pIC50 against TBK1 and at IKKε were 7.14 and 6.80, respectively.

`Nc1ccc(-c2c[nH]c3ncc(-c4ccc(CN5CCOCC5)s4)cc23)c2c1C(=O)NC2` [Example 86, 7-Amino-4-(5-(5-(morpholinomethyl)thiophen-2-yl)-1H-pyrrolo[2,3-b]pyridin-3-yl)isoindolin-1-one]: the figures for the pIC50 against TBK1 and at IKKε were 7.49 and 7.25, respectively.

In the case of `COc1cccc(Nc2nccc(-c3ccc(NC(C)=O)c4c3CNC4=O)n2)c1` [Example 162, N-(7-(2-((3-methoxyphenyl)amino)pyrimidin-4-yl)-3-oxoisoindolin-4-yl)acetamide], the pIC50 is 7.00 at TBK1 and 6.20 on IKKε.

On to `CC(=O)NCCNc1ccc(C(=O)Nc2ccc(Nc3ccccc3)c3c2C(=O)NC3)cc1` [Example 485, 4-((2-Acetamidoethyl)amino)-N-(3-oxo-7-(phenylamino)isoindolin-4-yl)benzamide], for which, at TNIK, the pIC50 was 7.00.

For the compound `NCCCNc1ccc(C(=O)Nc2ccc(Nc3ccccc3)c3c2C(=O)NC3)cc1` [Example 486, 4-((3-Aminopropyl)amino)-N-(3-oxo-7-(phenylamino)isoindolin-4-yl)benzamide], the pIC50 at TNIK was 6.70.

As for `O=C(Nc1ccc(Nc2ccccc2)c2c1C(=O)NC2)c1ccc(NCCO)cc1` [Example 487, 4-((2-Hydroxyethyl)amino)-N-(3-oxo-7-(phenylamino)isoindolin-4-yl)benzamide], the pIC50 on TNIK was 7.01.

For the compound `O=C(Nc1ccc(Nc2ccccc2)c2c1C(=O)NC2)c1ccc(NCC(O)CN2CCCCC2)cc1` (stereo not shown) [Example 488, 4-((2-Hydroxy-3-(piperidin-1-yl)propyl)amino)-N-(3-oxo-7-(phenylamino)isoindolin-4-yl)benzamide], the pIC50 on TNIK is 7.03.

Regarding `O=C(Nc1ccc(Nc2ccccc2)c2c1C(=O)NC2)c1ccc(NC[C@H](O)CN2CCCCC2)cc1` [Example 489, (S)-4-((2-hydroxy-3-(piperidin-1-yl)propyl)amino)-N-(3-oxo-7-(phenylamino)isoindolin-4-yl)benzamide], the pIC50 at TNIK was 7.06.

Take `O=C(Nc1ccc(Nc2ccccc2)c2c1C(=O)NC2)c1ccc(NC[C@@H](O)CN2CCCCC2)cc1` [Example 490, (R)-4-((2-hydroxy-3-(piperidin-1-yl)propyl)amino)-N-(3-oxo-7-(phenylamino)isoindolin-4-yl)benzamide]: on TNIK, the pIC50 is 6.85.

`NC1CCN(c2ccc(C(=O)Nc3ccc(Nc4ccccc4)c4c3C(=O)NC4)cc2)CC1` [Example 491, 4-(4-Aminopiperidin-1-yl)-N-(3-oxo-7-(phenylamino)isoindolin-4-yl)benzamide]: the pIC50 at TNIK was 6.96.

Consider `O=C(Nc1ccc(Nc2ccccc2)c2c1C(=O)NC2)c1ccc(NCCN2CCCCCC2)cc1` [Example 492, 4-((2-(Azepan-1-yl)ethyl)amino)-N-(3-oxo-7-(phenylamino)isoindolin-4-yl)benzamide], for which the pIC50 at TNIK is 6.74.
